From patent US20260248788A1, “NEW COMPOUNDS AND TREATMENT OF RENAL CELL CARCINOMA” (TRUSTLIFE THERAPEUTICS INC., priority 2023, published 2026) come the findings set out here.

Holding throughout (format): cell-based, human
The test system of one data set is Caki-1. Kind of data set: Cell Counting Kit-8 (CCK-8) cell viability assay. The following applies: Caki-1, 24 h; TG-101209 6 nM, NVP-TAE684 3 nM, MK-0752 5 nM, withaferin-a 4 μM, panobinostat 5 nM; vs DMSO. Here is the method:
Cell culture 1: Human clear cell renal cell carcinoma (ccRCC) cell line Caki-1 was obtained from the Karolinska Institute of Environmental Medicine, Stockholm, Sweden, derived from a ccRCC patient. The cells were cultured in RPMI 1640 medium with 10% fetal bovine serum (FBS) and 1% penicillin/streptomycin. The cells were cultivated at 37° C. in a humidified incubator with 5% CO2. TG-101209, NVP-TAE684, MK-0752, actinomycin-d, and panobinostat were purchased from Selleckchem ([…], […], […], […], […], Selleckchem, Houston, TX, USA), and withaferin-a was purchased from Sigma (W4394, Sigma-Aldrich, Saint Louis, MO, USA). These drugs were dissolved in DMSO. The cells (from cell culture 1) were seeded in a 96-well plate at 20×10^3 cells per well. After seeding for 24 h, the cells were treated for 24 h with the target drugs: TG-101209 (6 nM), NVP-TAE684 (3 nM), MK-0752 (5 nM), withaferin-a (4 μM), actinomycin-d (0.3 nM), and panobinostat (5 nM). The cells in the negative control group were only treated by DMSO for one day. Cell proliferation was detected by Cell Counting Kit-8 (CCK-8) assay. The 10 μl of CCK-8 reagent (1:10) was added to each well of 96-well plate with siRNA transfected cells or drug-treated cells by manufacturer's instruction. The 96-well plate was incubated at 37° C. for 2 hours and then measured absorbance at 450 nm using a microplate reader (Hidex Sense Beta Plus).
On the technique in general: Tetrazolium dyes change colour on reduction, which living cells bring about.

The next data set relates to RRM2. Nature of the data set: Western blot of RRM2 protein level in drug-treated Caki-1. The following applies: Caki-1, 24 h; NVP-TAE684 3 nM, MK-0752 5 nM, withaferin-a 4 μM, actinomycin-d 0.3 nM; vs DMSO. How it is done:
(§1) Cell culture 1: Human clear cell renal cell carcinoma (ccRCC) cell line Caki-1 was obtained from the Karolinska Institute of Environmental Medicine, Stockholm, Sweden, derived from a ccRCC patient. The cells were cultured in RPMI 1640 medium with 10% fetal bovine serum (FBS) and 1% penicillin/streptomycin. The cells were cultivated at 37° C. in a humidified incubator with 5% CO2.
(§2) TG-101209, NVP-TAE684, MK-0752, actinomycin-d, and panobinostat were purchased from Selleckchem (S2692, S1108, S2660, S8964, S1030, Selleckchem, Houston, TX, USA), and withaferin-a was purchased from Sigma (W4394, Sigma-Aldrich, Saint Louis, MO, USA). These drugs were dissolved in DMSO. The cells (from cell culture 1) were seeded in a 96-well plate at 20×10^3 cells per well. After seeding for 24 h, the cells were treated for 24 h with the target drugs: TG-101209 (6 nM), NVP-TAE684 (3 nM), MK-0752 (5 nM), withaferin-a (4 μM), actinomycin-d (0.3 nM), and panobinostat (5 nM). The cells in the negative control group were only treated by DMSO for one day.
The cells were washed with phosphate-buffered saline (PBS) and lysed with CelLytic M (C2978, Sigma-Aldrich, Saint Louis, MO, USA) lysis buffer containing protease inhibitors. The lysates were centrifuged at 12 000 rpm for 5 min, and the supernatant was collected. The proteins were separated by Mini-PROTEAN® TGX™ Precast Gels (BioRad, Berkeley, CA, USA) and transferred to a Trans-Blot Turbo Mini 0.2 μm PVDF Transfer Packs membrane (BioRad, Berkeley, CA, USA) by using Trans-Blot® Turbo™ Transfer System (Bio-Rad, Berkeley, CA, USA). The antibodies for BUB1B (HPA008419), RRM2 (HPA056994), CEP55 (HPA023430), ASF1B (HPA069385), CCNB2 (HPA008873), and GAPDH (sc47724, Santa Cruz Biotechnology, Inc.) were used for primary immunoblotting. All the antibodies were diluted at 1:10000 concentration. The membranes were incubated in primary antibody solution overnight at 4° C. with gentle rocking. […] The protein bands were detected with ImageQuanat™ LAS 500 (29-0050-63, GE) automatic exposure procedure or 6 min exposure.
(In western blotting, separated proteins are transferred to a membrane and probed.)

The test system of data set [1] is BUB1B. Nature of the data set: Western blot of BUB1B in Caki-1 cells treated with TG-101209 derivatives. The settings on record: Caki-1 cells, 5 μM of target drug, 1 day (FIG. 41, 56). How it is done:
(§3) Cell culture 2: Caki-1 was purchased from CLS Cell Lines Service (Germany). The cells were maintained in McCoy's 5A (modified) medium (16600082, Thermo Fisher Scientific, USA) and supplemented with 10% fetal bovine serum (FBS, F7524, Sigma-Aldrich), 1% Penicillin/Streptomycin (P4333, Sigma-Aldrich).
The target drugs developed as alternatives to TG-101209, were dissolved in 0.1% DMSO (41639, Sigma-Aldrich). Caki-1 cells from cell culture 2 were seeded in a 6-well plate at 3×10^5 cells per well. […]
The cells were washed with PBS solution and then lysed with CelLytic M (C2978, Sigma-Aldrich) lysis buffer containing protease inhibitors (11836170001, Roche). The cell lysates were centrifuged at 12 000 rpm for 10 min and supernatants were collected. Protein Assay Dye Reagent (5000006, Bio-Rad) was used for the determination of protein concentration. The absorbance of the proteins was measured spectrophotometrically at 595 nm by a microplate reader (Hidex Sense Beta Plus). Protein electrophoresis was performed using Mini-PROTEAN® TGX™ Precast Gels (4561086, Bio-Rad) and then the separated proteins were transferred to a Trans-Blot Turbo Mini 0.2 μm PVDF Transfer Packs membrane (1704158, Bio-Rad) by using Trans-Blot® Turbo™ Transfer System (Bio-Rad). The membrane was blocked with 5% skim milk for 30 min at 4° C. with gentle rocking. After blocking, the membrane was treated with primary antibodies: Anti-BUB1B (HPA008419, Human Protein Atlas, Sweden) and Anti-Beta actin (ab8227, Abcam) as a loading control overnight at 4° C. on a rocking platform. After the treatment of primary antibodies, the membrane was washed three times with TBS-T buffer (A09-7500-100, Medicago). Then, Goat anti-Rabbit IgG-HRP (ab205718, Abcam) was treated as the secondary antibody for 30 min at 4° C. with gentle rocking.

The test system of data set [2] is Caki-1 cells. Nature of the data set: MTT cell viability assay. Here is the method: as §3
The cytotoxic effects of the TG-101209 and its alternatives on the Caki-1 cells were tested by MTT (Thiazolyl Blue Tetrazolium Bromide) method. 1.5×10^4 cells were seeded per well in a 96-well plate in 100 μL growth media. […] After the incubation period, 5 mg/ml MTT (M2128, Sigma-Aldrich) solution in PBS (10 μL) was added to each well. After 1 hour, the MTT solution and all media were removed from the wells. 100 μl of DMSO was added and mixed to dissolve the formazan crystals. Cell viability was analysed by measuring the absorbance of the dissolved formazan at a wavelength of 570 nm with a microplate reader (Hidex Sense Beta Plus).

The test system of data set [3] is BUB1B. Kind of data set: Western blot of BUB1B protein level in drug-treated Caki-1. The settings on record: Caki-1, TG-101209 6 nM, 24 h, vs DMSO negative control. Here is the method: as §1, §2
The cells were washed with phosphate-buffered saline (PBS) and lysed with CelLytic M (C2978, Sigma-Aldrich, Saint Louis, MO, USA) lysis buffer containing protease inhibitors. […] The protein bands were detected with ImageQuanat™ LAS 500 (29-0050-63, GE) automatic exposure procedure or 6 min exposure.

The test system of data set [4] is Caki-1 cells. Kind of data set: LDH cytotoxicity assay. The following applies: Caki-1, 10 nM-30 μM. How it is done:
as §3
Lactate dehydrogenase (LDH) assay was performed with LDH Assay Kit (ab65393). […] 20 μl of media was analysed with LDH Assay Kit as per manufacturer's instruction.

The IC50 is the concentration needed to halve the response being measured.

“Also recorded” adds a separate entry of the source. *1 amine or outer side, *2 acyl side, *3 side chain or, on linkers, in order; H or OH if unused. Where a SMILES comes first, the peptide text is derived from it. Bridges are numbered along the chain shown (N, C = ends). Roman numbers before positions name the chains, in order. [ ]: non-standard residue; d: D form. Actinocin(9to1) = Cc1c2oc3c(C)ccc(C(=O)[*:1])c3nc-2c(C(=O)[*:2])c(N)c1=O; NMeV = CN[C@H](C(=O)O)C(C)C; Sar = CNCC(=O)O

As for `COc1cc(N2CCC(N3CCN(C)CC3)CC2)ccc1Nc1ncc(Cl)c(Nc2ccccc2S(=O)(=O)C(C)C)n1` [NVP-TAE684], the “cell viability (CCK-8)” value with Caki-1 was “significantly reduced”. Also, the “protein level of RRM2 (Western blot)” value in the data set on RRM2 is on record as “significantly suppressed”.

Turning to `CC1=C(CO)C(=O)O[C@@H]([C@@H](C)[C@H]2CC[C@H]3[C@@H]4C[C@H]5O[C@]56[C@@H](O)C=CC(=O)[C@]6(C)[C@H]4CC[C@]23C)C1` [withaferin-a], the “cell viability (CCK-8)” value in the data set on Caki-1 is reported as “significantly reduced”. Besides, the “protein level of RRM2 (Western blot)” value in the data set with RRM2 was “significantly suppressed”.

With `Cc1c2oc3c(C)ccc(C(=O)N[C@@H]4C(=O)N[C@H](C(C)C)C(=O)N5CCC[C@H]5C(=O)N(C)CC(=O)N(C)[C@@H](C(C)C)C(=O)O[C@@H]4C)c3nc-2c(C(=O)N[C@@H]2C(=O)N[C@H](C(C)C)C(=O)N3CCC[C@H]3C(=O)N(C)CC(=O)N(C)[C@@H](C(C)C)C(=O)O[C@@H]2C)c(N)c1=O` [actinomycin-d] (I: T[dV]P[Sar][NMeV] / II: T[dV]P[Sar][NMeV]; ester I:1-I:C, II:1-II:C; linker I:N-II:N via Actinocin(9to1)), the “protein level of RRM2 (Western blot)” value in the data set with RRM2 is on record as “does not work for inhibiting RRM2”.

For `Cc1cnc(Nc2ccc(N3CCN(C)CC3)cc2)nc1Nc1cccc(S(=O)(=O)NC(C)(C)C)c1` [TG-101209, reference compound], the “cell viability (CCK-8)” value with Caki-1 was “significantly reduced”. Also, the “expression levels of BUB1B (Western blot)” value in the data set with BUB1B [1] is “significantly lower the expression levels of BUB1B”. Besides, the “change of IC50 values after 2 days compared to 1 day treatment” value in the data set with Caki-1 cells [2] (Caki-1 (FIG. 53-54)) is “largest decrease”. In addition, the “effect on cell viability (MTT)” value in the data set on Caki-1 cells [2] (Caki-1, 10 μM, 1 day, first batch) is reported as “most profound effect”. This compound also came in with an IC50 in the data set on Caki-1 cells [2] (Caki-1, 1 day (FIG. 43), text: after treatment with 5 μM) of around 3 µM. The “Ranking, Cell viability (%)” value in the data set on Caki-1 cells [2] (top five, MTT assay, 10 μM, 1 day, rank 1 = greatest reduction) is 5. In addition, in the data set with BUB1B [3], the “protein level of BUB1B (Western blot)” value is “significantly decreased; also recorded: significantly reduced”. The “cytotoxic effect and dose dependence” value with Caki-1 cells [4] was “dose dependent toxicity”.
